From US9593305B2, “Differentiation of pluripotent stem cells” (Janssen Biotech, Inc., priority 2008, dated 2017)

Columns and labels:
[1] = system: H1 human embryonic stem cells; test: Screen of CDK, GSK3 and TRK inhibitors with or without GDF-8, SOX17 and cell number (Example 20, Table 17); format: cell-based; conditions: Plate 1; for Cell Number, % of positive control / Sox17 Expression, % of positive control: positive control = Activin A/Wnt3a
Protocol: Briefly, clusters of H1 human embryonic stem cells were grown on reduced growth factor Matrigel™ (Invitrogen; Cat #356231) coated tissue culture plastic. Cells were passaged using collagenase (Invitrogen; Cat #17104-019) treatment and gentle scraping, washed to remove residual enzyme, and plated with even dispersal at a ratio of 1:1 (surface area) on reduced growth factor […]™ (BD Biosciences; Cat #356231)-coated 96-well black plates (Packard ViewPlates; PerkinElmer; Cat #6005182) using volumes of 100 μl/well. Cells were allowed to attach and then recover log phase growth over a 1 to 3 day time period, feeding daily with MEF conditioned medium supplemented with 8 ng/ml bFGF (R&D Systems; Cat #233-FB). Plates were maintained at 37° C., 5% CO2 in a humidified box throughout the duration of assay.
Screening was conducted using the compounds described in Table 16. […] Compounds were made available as 5 mM stocks in 96-well plate format, solubilized in 100% DMSO (Sigma; Cat #D2650) and stored at −80° C. The library compounds were further diluted to an intermediate concentration of 0.2 mM in 50 mM HEPES (Invitrogen; Cat #15630-080), 20% DMSO and stored at 4° C. Test conditions were performed in triplicate, feeding on alternating days over a four-day assay period. Assay was initiated by aspirating culture medium from each well followed by three washes in PBS (Invitrogen; Cat #14190) to remove residual growth factors. On the first day of assay, test volumes of 200 μl per well were added to each well using DMEM:F12 base medium (Invitrogen; Cat #11330-032) supplemented with 0.5% FCS (HyClone; Cat #SH30070.03) and 100 ng/ml GDF-8 (R&D Systems, Cat #788-G8) plus 2.5 μM compound. A parallel set of test samples were treated in an identical manner but omitting GDF-8 from the medium. On the third day of assay, test volumes of 100 μper well were added to each well using DMEM:F12 base medium supplemented with 2% FCS plus 100 ng/ml GDF-8 (R&D Systems, Cat #788-G8). […] Positive control samples contained the same base medium supplemented with FCS and 100 ng/ml recombinant human activin A (PeproTech; Cat #120-14) throughout the four day assay along with Wnt3a (20 ng/ml) addition on days 1 and 2. Negative control samples contained DMEM:F12 base medium supplemented with FCS.
At the conclusion of four-days of culture, assay plates were washed twice with PBS (Invitrogen; Cat #14190), fixed with 4% paraformaldehyde (Alexis Biochemical; Cat #ALX-350-011) at room temperature for 20 minutes, then washed three times with PBS and permeabilized with 0.5% Triton X-100 (Sigma; Cat #T8760-2) for 20 minutes at room temperature. Cells were washed again three times with PBS and blocked with 4% chicken serum (Invitrogen; Cat #16110082) in PBS for 30 minutes at room temperature. Primary antibody (goat anti-human SOX17; R&D Systems; Cat #AF1924) was diluted 1:100 in 4% chicken serum and added to each well for one hour at room temperature. Alexa Fluor 488 conjugated secondary antibody (chicken anti-goat IgG; Molecular Probes; Cat #AZ1467) was diluted 1:200 in PBS and added to each sample well after washing three times with PBS. To counterstain nuclei, 4 μg/ml Hoechst 33342 (Invitrogen; Cat #H3570) was added for ten minutes at room temperature. Plates were washed once with PBS and left in 100 μl/well PBS for imaging.
Imaging was performed using an IN Cell Analyzer 1000 (GE Healthcare) utilizing the 51008bs dichroic for cells stained with Hoechst 33342 and Alexa Fluor 488. Exposure times were optimized from positive control wells and from untreated negative control wells stained with secondary antibody alone. Images from 15 fields per well were acquired to compensate for any cell loss during the bioassay and subsequent staining procedures. Measurements for total cell number and total SOX17 intensity were obtained from each well using IN Cell Developer Toolbox 1.7 (GE Healthcare) software. […]

[2] = system: CDK, GSK3, and/or TRK signaling pathways; test: Primary selectivity of the proprietary small molecules (Table 16); conditions: as listed in Table 17
Protocol: A subset of 14 proprietary small molecules, known to have specificity for the CDK, GSK3, and/or TRK signaling pathways were evaluated for their potential to differentiate human embryonic stem cells to cells expressing markers characteristic of the definitive endoderm lineage.

[3] = compound in combination with GDF8

Row | SMILES | Cell Number, Average Total Cell Number ([1]; compound alone, No GDF8) | Sox17 Expression, Average Total Intensity ([1]; compound alone, No GDF8) | Cell Number, % of positive control ([1]; compound alone, No GDF8) | Sox17 Expression, % of positive control ([1]; compound alone, No GDF8) | Cell Number, Average Total Cell Number [1, 3] | Sox17 Expression, Average Total Intensity [1, 3] | Cell Number, % of positive control [1, 3] | Sox17 Expression, % of positive control [1, 3] | Compound Selectivity [2] | Compound Selectivity ([2]; GDF8 treatment) | Compound Selectivity ([2]; No GDF8 treatment)
1 | O=C(O)c1ccc(Nc2ncc3nnn(-c4cccc(F)c4)c3n2)cc1 [Compound 6] | 14827 | −1.8E+05 | 102.4 % of positive control | −0.1 % of positive control | 5118 | 5.8E+07 | 35.4 % of positive control | 25.2 % of positive control | Selective for GSK | – | –
2 | O=C(O)c1cc(Nc2ncc3nnn(-c4ccccc4)c3n2)ccc1F [Compound 7, 2-Fluoro-5-[(3-phenyl-3H-[1,2,3]triazolo[4,5-d]pyrimidin-5-yl)amino]benzoic acid] | 3 | −1.4E+06 | 0.0 % of positive control | −0.6 % of positive control | 5296 | 7.0E+07 | 36.6 % of positive control | 30.4 % of positive control | – | Selective for GSK | Selective for CDK
3 | Nc1nccc(-c2cccc(Nc3ncc4nnn(-c5cccc(CNC(=O)C6CC6)c5)c4n3)c2)n1 [Compound 8, N-{[3-(5-{[3-(2-Aminopyrimidin-4-yl)phenyl]amino}-3H-1-[1,2,3]triazolo[4,5-d]pyrimidin-3-yl)phenyl]methyl}cyclopropanecarboxamide] | 13235 | 3.8E+05 | 91.4 % of positive control | 0.2 % of positive control | 5018 | 4.7E+07 | 34.7 % of positive control | 20.4 % of positive control | Selective for GSK | – | –
4 | COCCCNS(=O)(=O)c1ccc(Nc2ncc3cnn(C4CCCCC4)c3n2)cc1 [Compound 9, 4-[(1-Cyclohexyl-1H-pyrazolo[3,4-d]pyrimidin-6-yl)amino]-N-[3-(methyloxy)propyl]benzenesulfonamide] | 7156 | −4.2E+04 | 49.4 % of positive control | 0.0 % of positive control | 4816 | 4.5E+07 | 33.3 % of positive control | 19.4 % of positive control | Selective for CDK | – | –
5 | COc1ccc(Nc2cc(Nc3cc(Cl)ccc3O)ncn2)cc1CCl [Compound 10, 4-Chloro-2-[(6-{[3-(chloromethyl)-4-methoxyphenyl]amino}pyrimidin-4-yl)amino]phenol] | 7011 | −6.6E+05 | 48.4 % of positive control | −0.3 % of positive control | 4627 | 6.6E+07 | 32.0 % of positive control | 28.6 % of positive control | Selective for CDK | – | –
6 | CN1CCC(NC(=O)c2ccc(Nc3nccc(N4CCN(C)c5ccccc54)n3)cc2)CC1 [Compound 11, 4-{[4-(4-Methyl-3,4-dihydroquinoxalin-1(2H)-yl)pyrimidin-2-yl]amino}-N-(1-methylpiperidin-4-yl)benzamide] | 565 | −1.1E+06 | 3.9 % of positive control | −0.5 % of positive control | 210 | −4.9E+05 | 1.4 % of positive control | −0.2 % of positive control | Selective for CDK | – | –
7 | COCCCNCc1ccc(Nc2nccc(-c3c[nH]c4ncccc34)n2)c(OC)c1 [Compound 12, N-(2-Methoxy-4-{[(3-methoxypropyl)amino]methyl}phenyl)-4-(1H-pyrrolo[2,3-b]pyridin-3-yl)pyrimidin-2-amine] | 13124 | −2.3E+05 | 90.7 % of positive control | −0.1 % of positive control | 31 | −1.3E+06 | 0.2 % of positive control | −0.6 % of positive control | – | Selective for CDK | Selective for GSK
8 | N#Cc1cnc2nc1Nc1cccc(c1)OCCNC(=O)c1cccc(c1)N2 [Compound 41, 18-Oxo-14-oxa-2,4,8,17,25-pentaazatetracyclo[17.3.1.1˜3,7˜0.1˜9,13˜]pentacosa-1(23), 3(25), 4,6,9(24), 10,12,19,21-nonaene-6-carbonitrile] | 9995 | 5.9E+04 | 69.0 % of positive control | 0.0 % of positive control | 4455 | 3.4E+07 | 30.8 % of positive control | 14.8 % of positive control | Selective for GSK | – | –
9 | O=C1COc2cccc(c2)Nc2nccc(n2)Nc2cccc(c2)OCCCN1 [Compound 42, 14,21-Dioxa-2,4,8,18,28-pentaazatetracyclo[20.3.1.1˜3,7˜0.1˜9,13˜]octacosa-1(26), 3(28), 4,6,9(27), 10,12,22,24-nonaen-19-one] | 8700 | −2.4E+05 | 60.1 % of positive control | −0.1 % of positive control | 5686 | 4.9E+07 | 39.3 % of positive control | 21.2 % of positive control | Selective for CDK | – | –
10 | CN1CCCc2cccc(c2)-c2nnc([nH]2)Nc2cccc(c2)CN2CCN(CC2)C(=O)C1 [Compound 43, 21-Methyl-1,8,10,11,21,24,30-heptaazapentacyclo[22.2.2.1˜3,7˜0.1˜9,12˜0.1˜13,17˜]hentriaconta-3(31). 4,6,9,11,13(29), 14,16-octaen-23-one] | 8610 | −2.1E+05 | 59.5 % of positive control | −0.1 % of positive control | 6682 | 5.4E+07 | 46.2 % of positive control | 23.4 % of positive control | Selective for Trk | – | –
